In the experiment the test system is DQ0602. The experiment is described as follows: DQ0602 peptide competition binding assay (vs Bio-EBV epitope, DELFIA TRF). To be noted: 40 μM competitor vs 1 μM Bio-EBV, 25 nM DQ0602, pH 4.6, 3 days 37 °C, duplicate, <25% strong, 25–50% weak binder; for %DQ6-EBV Binding (PANDEMRIX motif): Suppl Table 1, motif in Pandemrix; for %DQ6-EBV Binding (PH1N1 motif): Suppl Table 1, wild type pH1N1 motif; for %DQ6-EBV Binding (X179A motif): Suppl Table 1, reference motif of X179A.

Procedure: The reaction was quenched by adding two volumes of neutralization buffer (100 mM Tris-HCl, pH = 8.6, 150 mM NaCl, 1% BSA, 0.5 Nonidet P-40 (IGEPAL CA-630, Sigma), 0.1% NaN3). Monoclonal anti-DQ (SPV-L3) antibodies (Cat# BNUM0200-50, Biotium, Fremont, CA, USA) (1:400 dilution in 100 mM carbonate-bicarbonate buffer, pH = 9.5) were coated onto a high binding 96-well plate (REF# 9018, Corning), and incubated with neutralized reaction for 1–2 h at room temperature (RT). After washing five times with 300 μL/well of wash buffer (phosphate-buffered saline (PBS), 0.05% Tween-20, pH = 7.4), 100 μL/well of Europium (Eu)-labelled streptavidin (Cat# 1244–360, PerkinElmer, Waltham, MA, USA) (1:1000 dilution in PBS, 1% BSA, pH = 7.4) was added and incubated for 1 h at RT. After washing 5 times again with 300 μL/well of wash buffer, DELFIA® time-resolved fluorescence (TRF) intensity was detected using a Tecan Infinite® M1000 after adding 100 μL/well of enhancement solution (Cat# 1244–105, PerkinElmer). Non-specific binding was removed through extensive wash with wash buffer.
A combination of in-vitro and in-silico methods was adopted to address this question. We synthesized 15 mer peptide stretches overlapping by 4mers using the most abundant viral proteins (HA, NA, NP, M1 & PB2) from reference strains (X179A and wild type pH1N1) as a template. […] In this way, a database of experimentally derived peptide binders from the abundant viral proteins was built. Next, we compared the mutated motifs (Table 3) from the vaccines to the reference motifs already tested for DQ0602 binding.

Consider LEVLMEWLKT[R > I]PILSPLTKG, for which the “%DQ6-EBV Binding (PANDEMRIX motif)” value is recorded as 51.58%.

DPNNMDKAVK[L > M]YRKLKREIT: the “%DQ6-EBV Binding (PANDEMRIX motif)” value amounted to 71.82%.

Turning to NALNGNGDPN[N]MDRAVKLYK, the “%DQ6-EBV Binding (PH1N1 motif)” value is 21.69%.

As for NTSLPFQNIH[P]ITIGKCPKY, the “%DQ6-EBV Binding (X179A motif)” value was 56.53% and the “%DQ6-EBV Binding (PH1N1 motif)” value came out at 56.53%.

In the case of MASQGTKRSY[E]QMETGGERQ, the “%DQ6-EBV Binding (PH1N1 motif)” value came out at 71.8%.

Regarding NNAKEIGNGC[F > Y]EFYHKCDNT, the “%DQ6-EBV Binding (PANDEMRIX motif)” value is given as 84.06%.

Consider LQRRRFVQNA[L]NGNGDPNNM, for which the “%DQ6-EBV Binding (X179A motif)” value is given as 83.1% and the “%DQ6-EBV Binding (PH1N1 motif)” value is 83.1%.

For VGKEFNHLEK[R]IENLNKKVD, the “%DQ6-EBV Binding (X179A motif)” value amounted to 80.71% and the “%DQ6-EBV Binding (PH1N1 motif)” value was determined as 80.71%.

For the substance NTSLPFQNIH[P > Q]ITIGKCPKY, the “%DQ6-EBV Binding (PANDEMRIX motif)” value is 42.35%.

On to DPNNMDRAVK[L]YKKLKREIT, for which the “%DQ6-EBV Binding (PH1N1 motif)” value amounted to 67.01%.

As to LEVLMEWLKT[R]PILSPLTKG, the “%DQ6-EBV Binding (X179A motif)” value is recorded as 116.06%.

On to MASQGTKRSY[E]QMETDGERQ, for which the “%DQ6-EBV Binding (X179A motif)” value was 67.56%.

For NNAKEIGNGC[F]EFYHKCDNT, the “%DQ6-EBV Binding (X179A motif)” value stood at 79.28% and the “%DQ6-EBV Binding (PH1N1 motif)” value amounted to 79.28%.

Turning to QNALNGNGDP[N > D]NMDKAVKLY, the “%DQ6-EBV Binding (PANDEMRIX motif)” value is on record as 6.87%.

In the case of QGRGVFELSD[E]KATNPIVPS, the “%DQ6-EBV Binding (PH1N1 motif)” value was determined as 39.96%.

Take QVYSLIRPNE[N]PAHKSQLVW: the “%DQ6-EBV Binding (X179A motif)” value came out at 48.19%.

For the substance LQRRRFVQNA[L > P]NGNGDPNNM, the “%DQ6-EBV Binding (PANDEMRIX motif)” value is reported as 88.31%.

For the substance QVYSLIRPNE[N > D]PAHKSQLVW, the “%DQ6-EBV Binding (PANDEMRIX motif)” value amounted to 35.94%.

Regarding LEALMEWLKT[R]PILSPLTKG, the “%DQ6-EBV Binding (PH1N1 motif)” value is 31.61%.

QNALNGNGDP[N]NMDKAVKLY: the “%DQ6-EBV Binding (X179A motif)” value was found to be 6.01%.

QGRGVFELSD[E]KAASPIVPS: the “%DQ6-EBV Binding (PANDEMRIX motif)” value was found to be 14.93% and the “%DQ6-EBV Binding (X179A motif)” value was determined as 14.93%.

In the case of RTTIMAAFNG[N > D]TEGRTSDMR, the “%DQ6-EBV Binding (PANDEMRIX motif)” value is given as 12.48%.

Turning to DPNNMDKAVK[L]YRKLKREIT, the “%DQ6-EBV Binding (X179A motif)” value worked out at 73.65%.

NALNGNGDPN[N > D]MDKAVKLYR: the “%DQ6-EBV Binding (PANDEMRIX motif)” value stood at 27.47%.

Turning to QRRRFVQNAL[N > D]GNGDPNNMD, the “%DQ6-EBV Binding (PANDEMRIX motif)” value amounted to 77.89%.

On to QRRRFVQNAL[N]GNGDPNNMD, for which the “%DQ6-EBV Binding (X179A motif)” value is given as 66.28% and the “%DQ6-EBV Binding (PH1N1 motif)” value is 66.28%.

As for QVVSLMRPNE[N]PAHKSQLVW, the “%DQ6-EBV Binding (PH1N1 motif)” value turned out to be 31.89%.

For the substance VGKEFNHLEK[R > I]IENLNKKVD, the “%DQ6-EBV Binding (PANDEMRIX motif)” value was 42.31%.

On to NALNGNGDPN[N]MDKAVKLYR, for which the “%DQ6-EBV Binding (X179A motif)” value is 32.79%.

Turning to MASQGTKRSY[E > Q]QMETDGERQ, the “%DQ6-EBV Binding (PANDEMRIX motif)” value was determined as 78.07%.

The values above are taken from paper PMC7712488 (Vaccines, 2020).
